Source: PMC5626627 (The FEBS journal, 2017)
Substitutions are numbered along the chain they refer to.

Key:
[1] = target: T1, corn root FNR (ferredoxin:NADP+ reductase) (Zea mays, UniProt B4G043); assay: anaerobic spectrophotometric titration, flavin charge-transfer bands; format: biochemical; details: 50 mM HEPES-NaOH, pH 7.0, 15 °C
T1 sequence (B4G043 66-381): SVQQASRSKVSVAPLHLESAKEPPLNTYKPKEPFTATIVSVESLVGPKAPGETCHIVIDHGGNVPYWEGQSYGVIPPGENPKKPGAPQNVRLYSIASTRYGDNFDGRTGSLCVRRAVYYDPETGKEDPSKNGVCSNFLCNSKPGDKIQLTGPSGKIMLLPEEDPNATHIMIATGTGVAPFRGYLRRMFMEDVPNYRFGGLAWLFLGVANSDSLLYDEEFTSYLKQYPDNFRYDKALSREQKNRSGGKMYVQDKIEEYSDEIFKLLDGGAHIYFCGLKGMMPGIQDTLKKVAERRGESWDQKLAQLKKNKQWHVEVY

[2] = target: T2, corn root FNR (ferredoxin:NADP+ reductase) (Zea mays, UniProt B4G043, Y381S); assay: titration, visible absorption of FAD; format: binding
T2 sequence (B4G043 66-381 Y381S): T1 sequence (B4G043 66-381) with Y316S

[3] = target: T2, corn root FNR (ferredoxin:NADP+ reductase); assay: anaerobic titration, visible absorption of FAD; format: binding

SMILES	Kd [2]	further results
NC(=O)C1=CN([C@@H]2O[C@H](COP(=O)(O)OP(=O)(O)OC[C@H]3O[C@@H](n4cnc5c(N)ncnc54)[C@H](OP(=O)(O)O)[C@@H]3O)[C@@H](O)[C@H]2O)C=CC1 [NADPH]	–	anaerobic spectrophotometric titration, flavin charge-transfer bands [1]: for wild-type the CTC-1 absorption band dominates
NC(=O)c1cccnc1 [nicotinamide]	3 ± 0.1 mM	–
NC(=O)c1ccc[n+]([C@@H]2O[C@H](COP(=O)(O)OP(=O)(O)OC[C@H]3O[C@@H](n4cnc5c(N)ncnc54)[C@H](O)[C@@H]3O)[C@@H](O)[C@H]2O)c1 [NAD^+]	0.145 ± 0.005 mM	–
NC(=O)c1ccc[n+]([C@@H]2O[C@H](COP(=O)(O)OP(=O)(O)OC[C@H]3O[C@@H](n4cnc5c(N)ncnc54)[C@H](OP(=O)(O)O)[C@@H]3O)[C@@H](O)[C@H]2O)c1 [NADP^+]	–	Kd [3]: ≤ 20 nM
